Data published in patent US11884633B2, “Arylazole compound and pest control agent” (Nippon Soda Co., Ltd., priority 2015, dated 2024).

How the values were obtained:
[1] = test system: Mythimna separata; test: Test Example 1: efficacy test on Mythimna separata (artificial diet); format: in vivo; details: 0.8 g artificial diet mixed with 1 μl emulsion (I) (5% active ingredient); second instar larvae; 25° C.; fifth day
Procedure: (§1) 5 parts of the compound of the present invention, 93.6 parts of dimethylformamide, and 1.4 parts of polyoxyethylene alkylaryl ether were mixed and dissolved to prepare an emulsion (I) with 5% the active ingredient.
(§2) The insecticidal rate and the control rate were calculated by the following Equation. Insecticidal rate (%)=(number of dead insects/number of test insects)×100 Control rate={1−(Nt)/(Nc)}×100
0.8 g of commercially available artificial diet (Insector LFS, manufactured by Nosan Corp.) and Emulsion (I) 1 μl were well mixed and 0.2 g per each treatment group was packed in a plastic test container (1.4 ml) to prepare test feed. Two Mythimna separata second instar larvae were inoculated into each treatment group and sealed with a plastic lid. The container was placed in a thermostatic chamber at 25° C., and the insecticidal rate and food intake were examined on the fifth day. The test was performed twice. Further, a test conducted under the same conditions except that the compound of the present invention was removed from the emulsion (I) was performed as a vehicle control group.

[2] = test system: Aphis gossypii; test: Test Example 11: efficacy test on Aphis gossypii (rooting treatment test); format: in vivo; details: 8 ppm; hydroponic culture of cucumber seedlings (root treatment); 6 days
Procedure: as §1, §2
The cucumber seedlings raised in a small pot were drawn out from the small pot, the soil adhering to the root portion was washed off with tap water, and the root portion was dipped in tap water and hydroponically cultivated. Cucumber seedlings were inoculated with Aphis gossypii […]. Emulsion (I) was diluted with water to obtain a diluted solution having a concentration of the compound of the present invention of 8 ppm. The tap water was replaced with the diluent and the hydroponic culture with the diluent was continued in a thermostatic chamber at a temperature of 25° C. and a humidity of 60%. When 6 days passed from the start of hydroponic culture with the diluent, life and death determination on Aphis gossypii was performed and the insecticidal rate was calculated. The test was performed twice.

[3] = test system: housefly; test: Test Example 12: efficacy test on housefly; format: in vivo; details: 100 ppm on cubic sugar; female adults; 25° C.; 24 hours
Procedure: as §2
The compound of the present invention was diluted with acetone and added dropwise to 1 g of cubic sugar such that the concentration was set to be 100 ppm. The cubic sugar was placed in a plastic cup, and ten housefly female adults were released and capped. After storage at 25° C. and 24 hours passing from releasing, life and death determination was performed and the insecticidal rate was calculated. The test was performed twice.

[4] = test system: Plutella xylostella; test: Test Example 13: efficacy test on Plutella xylostella (soil immersion test); format: in vivo; details: 500 ppm, 10 ml soil irrigation of chingengsai seedlings; adults released after 7 days; counted 7 days after release
Procedure: as §1, §2
Nt: Number of parasites in spray treatment group
Nc: Number of parasites in untreated group
Emulsion (I) was diluted with water such that the concentration of the compound of the present invention was set to be 500 ppm to obtain a test solution. 10 ml of the test solution was irrigated to the stocker at chingengsai seedlings (seventh true leaf development stage) planted in a small pot and placed in a greenhouse at 25° C. for 7 days. Chingengsai seedlings were transferred into glass greenhouse and 300 adults of Plutella xylostella per 50 chingengsai were released in glass greenhouse. When 7 days passed after release, the number of surviving Plutella xylostella infested in Chingengsai seedlings was counted and the control rate was calculated. The test was performed twice.

[5] = test system: Ornithodoros moubata; test: Test Example 16: feeding effect test on Ornithodoros moubata; format: in vivo; details: 10 ppm in defibrin blood of sheep; tritonymphs; 14 days after blood sucking
Procedure: as §2
A DMSO solution of the compound of the present invention was mixed with the defibrin blood of sheep to obtain a mixed solution of 10 ppm. 2 ml of this mixed solution was placed in a container and capped with a parafilm membrane. In addition, 20 tritonymphs of Ornithodoros moubata were released and allowed to suck the blood through a parafilm membrane for about 30 minutes. The nymphs were transferred to a storage container and incubated in a thermostatic chamber at a temperature of 28° C. and a humidity of 80%, and the life and death and developmental stage were observed 14 days after blood sucking. The test was performed twice.

[6] = test system: Rhipicephalus microplus; test: Test Example 17: contact effect test on Rhipicephalus microplus; format: in vivo; details: 100 ppm test solution; larvae; 24 hours after treatment
Procedure: as §2
A DMSO solution of the compound of the present invention was diluted with water to obtain a test solution at 100 ppm. This drug solution was dropped into a container containing 20 larvae of Rhipicephalus microplus and incubated in a thermostatic chamber at a temperature of 28° C. and a humidity of 80%. The larvae's life and death were determined 24 hours after the drug treatment. The test was performed twice.

[7] = test system: Lucilia cuprina larvae; test: Test Example 18: contact/feeding effect test on Lucilia cuprina larvae; format: in vivo; details: 1000 ppm in horse meat, 48 hours
Procedure: as §2
A DMSO solution of the compound of the present invention was mixed with horse meat to obtain a mixture of 1000 ppm. 20 Lucilia cuprina larvae were introduced into the test tube with the mixture. The mixture was incubated in a thermostatic chamber at a temperature of 28° C. and a humidity of 80%, and the larvae's life and death were determined 48 hours after the start of the test. The test was performed twice.

[8] = test system: Aedes aegypti larvae; test: Test Example 19: contact/feeding effect test on Aedes aegypti larvae; format: in vivo; details: final concentration 10 ppm; first instar larvae; 48 hours
Procedure: as §2
A DMSO solution of the compound of the present invention was diluted with water to obtain a diluted solution of 100 ppm. 10 Aedes aegypti first instar larvae were placed in each well of a 96-well microtiter plate together with breeding water, 1/10 of 100 ppm diluted solution were added and tested at a final concentration of 10 ppm. The mixture was incubated in a thermostatic chamber at a temperature of 28° C. and a humidity of 80%, and the larvae's life and death were determined for 48 hours after the drug treatment. The test was performed twice.

Row | SMILES | feeding amount in comparison with the vehicle control group [1] [%] | also measured
1 | CCS(=O)(=O)c1ccc(-n2cnc(N)n2)nc1-n1ncc(C=C(Cl)C(F)(F)C(F)(F)F)c1C [10-10] | ≤ 10 | –
2 | CCS(=O)(=O)c1cccnc1-n1ncc(C=C(Cl)C(F)(F)F)c1C (mixture of isomers) [10-3] | ≤ 10 | –
3 | CCS(=O)(=O)c1cc(C(F)(F)F)ccc1-c1ncc(/C=C/C(F)(F)F)n1C [1-10] | ≤ 10 | –
4 | CCS(=O)(=O)c1ccc(-n2ncnc2N)nc1-n1ncc(C=C(Cl)C(F)(F)C(F)(F)F)c1C [10-11] | ≤ 10 | –
5 | CCS(=O)(=O)c1cccnc1-n1ncc(C=C(Cl)C(F)(F)C(F)(F)F)c1C [10-7] | ≤ 10 | –
6 | CCS(=O)(=O)c1ccc(-n2cncn2)nc1-c1ncc(C=C(Cl)C(F)(F)C(F)(F)F)n1C [4-10] | ≤ 10 | –
7 | CCSc1cccnc1-n1ncc(C=C(Cl)C(F)(F)C(F)(F)F)c1C [10-6] | ≤ 10 | –
8 | CCS(=O)(=O)c1cc(C(F)(F)F)ccc1-c1ncc(C=C(Cl)C(F)(F)F)n1C [1-1, 5-(2-Chloro-3,3,3-trifluoroprop-1-en-1-yl)-2-(2-(ethylsulfonyl)-4-(trifluoromethyl)phenyl)-1-methyl-1H-imidazole] | – | insecticidal rate [2]: ≥ 80%; insecticidal rate [3]: ≥ 80%; control rate [4]: ≥ 80%; insecticidal rate [5]: ≥ 90%; insecticidal rate [6]: ≥ 90%; insecticidal rate [7]: ≥ 90%; insecticidal rate [8]: ≥ 90%
9 | CCS(=O)(=O)c1ccc(-n2cncn2)nc1-n1ncc(C=C(Cl)C(F)(F)C(F)(F)F)c1C [10-5] | ≤ 10 | –
10 | CCS(=O)(=O)c1ccc(-n2cncn2)nc1-n1ncc(C=C(Cl)C(F)(F)F)c1C (mixture of isomers) [10-4] | ≤ 10 | –
11 | CCS(=O)(=O)c1cc(C(F)(F)F)cnc1-n1ncc(C=C(Cl)C(F)(F)F)c1C (mixture of isomers) [10-2] | ≤ 10 | –
12 | CCS(=O)(=O)c1cc(C(F)(F)F)ccc1-n1ncc(C(=O)On2nnc3ccccc32)c1C [15-2] | – | melting point: 211 to 215 °C
13 | CCSc1cc(C(F)(F)F)ccc1-c1ncc(C(=O)N2CC(F)(F)C(F)(F)C2)n1C [15-3] | – | melting point: 155 to 156 °C
